In patent US10634665B2 (priority 2014, dated 2020):

Test system: BEAS-2B epithelium
Experiment: Drug toxicity test in bronchiolar device (LDH release)
Assay type: cell-based
Conditions: 0.1, 1.0 and 10 μM in BEGM medium, recirculating 10 μL/min, 48 hours, bronchiolar device of FIG. 27; FIG. 95A
Method: FIGS. 95A-95D show drug toxicity results obtained from using a bronchiolar device embodiment described herein; FIG. 95A is a graph of camptothecin concentration (μM) vs. cytotoxicity (% LDH release) illustrating the cytotoxicity of camptothecin as measured after having passed through the bronchiolar device; […] show images of fluorescent microbead deposition on a central lumen associated with cells.
Drug toxicity was tested using a bronchiolar device as described herein. A pro-apoptotic anti-cancer drug, camptothecin, was chosen to monitor drug toxicity in the bronchiolar device illustrated in FIG. 27. Different concentrations of camptothecin (0.1, 1.0 and 10 μM) were prepared by diluting the original stock solution (2 mg/mL in DMSO) with BEGM culturing medium. After the lumen of a hollow tube of the device was covered with BEAS-2B epithelium, medium in the medium reservoir (which was connected to a maintaining system) was replaced with individual concentrations of the camptothecin medium solution to allow the circulating flow into medium chamber of device. The tubing connected to hollow tube was closed and the recirculating flow rate was set to 10 μL/min to allow camptothecin to diffuse into the bronchiolar epithelium for 48 hours.

SMILES: CC[C@@]1(O)C(=O)OCc2c1cc1n(c2=O)Cc2cc3ccccc3nc2-1 [camptothecin]
- cytotoxicity (% LDH release) versus camptothecin concentration: drug dose dependence was observed
